We go through four compounds from patent US4888339A, “Agent for prophylaxis and treatment of cardiac hypertrophy” (Tanabe Seiyaku Co., Ltd., priority 1986, dated 1989).

What all share (format): in vivo
In one data set the test system is rats. The data set is described as follows: Oral toxicity in rats. The conditions noted are these: 5 g/kg, observed for 5 days. From the text: Moreover, the compounds (I) of this invention have low toxicity.
The test system of data set [1] is spontaneously hypertensive rats (SHR). The data set is described as follows: Activity for inhibiting cardiac hypertrophy, oral administration to SHR (Experiment 1). The conditions noted are these: 5 mg/kg/day for 10 weeks. The method, then:
The test compound: (4S)-1-methyl-3-[(2S)-2-[N-((1S)-1-ethoxycarbonyl-3-phenylpropyl)amino]propionyl]-2-oxo-imidazolidine-4-carboxylic acid hydrochloride was dissolved in distilled pure water and orally administered to spontaneously hypertensive rats (SHR) (4 weeks old age at the beginning of experiment, groups of 6 rats) at a dose of 5 mg/kg/day for 10 weeks.
Twenty-four hours after the final dosing, the SHR was killed by bleeding under ether anesthesia. The weight of heart was measured and the weight of heart per 100 g of body weight (relative heart weight) was calculated. After that, the heart was used for the measurement of cross sectional area of the heart.
Method for measurement of cross sectional area of heart is as follows:
(i) After weighing the excised heart, the excised heart was immersed in 10% neutral buffered formalin solution for about one week to fix said heart. The fixed heart was cut at a definitive region crossing the left and right ventricles to obtain a sample (thickness: about 2 mm). The sample was again immersed in a 10% neutral buffered formalin solution overnight, treated with paraffin in a usual manner (Note 1) and then stained with hematoxyin eosine (HE).
(ii) The microscopic image of the stained sample was examined by an image analyzer (Note 2) to give the ratio of the area of stained region to the area of unstained region (the latter area being the gap produced in preparing the sample).
(iii) The real area of the sample was obtained by an image analyzer and then multiplied by the ratio obtained in the above (ii) to give the cross sectional area of the heart.
[Note 1]: It is disclosed in "Byori Gijutsu Mannual" (Mannual for Pathorogical Technology) 3, Technology for Histopathorogical Preparation, ed. by Nippon Byori Gakkai, issued on Mar. 30, 1981 by Ishiyaku Shuppan K.K.
[Note 2]: Nikon three tube color television camera and Nikon Ruzex II, manufactured by Nippon Kogaku K.K.
The inhibitory ratio was calculated by the following equation: [formula]

For data set [2] the test system is unchanged. The data set can be described thus: Activity for inhibiting cardiac hypertrophy, intraperitoneal administration to SHR (Experiment 2). The conditions noted are these: 0.5 mg/kg/day for 10 weeks. The method, then: The test compound: (4S)-1-methyl-3-[(2S)-2-[N-((1S)-1-carboxy-3-phenylpropyl)amino]propionyl]-2-oxo-imidazolidine-4-carboxylic acid hydrochloride was dissolved in distilled pure water and intraperitoneally administered to spontaneously hypertensive rats (SHR) (4 weeks old age at the beginning of experiment, groups of 9 rats) at a dose of 0.5 mg/kg/day for 10 weeks.
Twenty-four hours after the final dosing, the SHR was killed by bleeding under ether anesthesia. The weight of heart was measured and the weight of heart per 100 g of body weight (relative heart weight) was calculated.

The mark [3] stands for this setting: SHR, versus non-administ. group.

Structures are written as SMILES.

Take `C[C@H](N[C@@H](CCc1ccccc1)C(=O)O)C(=O)N1C(=O)N(C)C[C@H]1C(=O)O` [(4S)-1-methyl-3-[(2S)-2-[N-((1S)-1-carboxy-3-phenylpropyl)amino]propionyl]-2-oxo-imidazolidine-4-carboxylic acid]: the Mortality entry with rats is “no rats was died”.
As for `CCOC(=O)[C@H](CCc1ccccc1)N[C@@H](C)C(=O)N1C(=O)N(C)C[C@H]1C(=O)O` [(4S)-1-methyl-3-[(2S)-2-[N-((1S)-1-ethoxycarbonyl-3-phenylpropyl)amino]propionyl]-2-oxo-imidazolidine-4-carboxylic acid], the Mortality entry with rats was “no rats was died”. In addition, the “Inhibition of increase of heart weight (in words)” value in data set [1] (spontaneously hypertensive rats) is recorded as “significantly inhibited increase of heart weight”.
With `C[C@H](N[C@@H](CCc1ccccc1)C(=O)O)C(=O)N1C(=O)N(C)C[C@H]1C(=O)O.Cl` [(4S)-1-methyl-3-[(2S)-2-[N-((1S)-1-carboxy-3-phenylpropyl)amino]propionyl]-2-oxo-imidazolidine-4-carboxylic acid hydrochloride], the “Inhibition of cardiac hypertrophy (in words)” value in data set [2] was “clear inhibition of cardiac hypertrophy”. Also, the “Relative heart weight (weight of heart per 100 g of body weight)” value in data set [2] (groups of 9, non-administ. group 0.36 ± 0.013, ** significant at 0.1% level) came to 0.33 ± 0.012 g. Besides, in data set [2] (versus non-administ. group), the “Inhibitory ratio, relative heart weight” value amounted to 8%.
`CCOC(=O)[C@H](CCc1ccccc1)N[C@@H](C)C(=O)N1C(=O)N(C)C[C@H]1C(=O)O.Cl` [(4S)-1-methyl-3-[(2S)-2-[N-((1S)-1-ethoxycarbonyl-3-phenylpropyl)amino]propionyl]-2-oxo-imidazolidine-4-carboxylic acid hydrochloride]: the “Inhibition of cardiac hypertrophy (in words)” value in data set [1] (SHR) is “clear inhibition of cardiac hypertrophy”. Further, the “Relative heart weight (weight of heart per 100 g of body weight)” value in data set [1] (SHR, groups of 6, non-administ. group 0.399 ± 0.01, * significant at 1% level) is recorded as 0.34 ± 0.01 g. For the same compound, the “Sectional area of heart” value in data set [1] (SHR, groups of 6, non-administ. group 66.8 ± 4.0, * significant at 1% level) was determined as 57.9 ± 2.9 mm^2. For the same compound, in data set [1] (setting [3]), the “Inhibitory ratio, relative heart weight” value is recorded as 13% and the “Inhibitory ratio, sectional area of heart” value amounted to 13%.
